Results: patent US9085576B2 (AMGEN INC., priority 2013, dated 2015)

Columns and labels:
[1] = biological target: BACE (Homo sapiens (Human), UniProt P56817); assay: In vitro BACE cell-based assay (Aβ40 in conditioned medium, sandwich ELISA)
[2] = biological target: Cathepsin D (Cat D) (Homo sapiens (Human), UniProt P07339); assay: In vitro enzymatic Cathepsin D (Cat D) FRET assay; format: biochemical; conditions: read-out: CatD IC50
[3] = biological target: Beta Secretase enzyme (BACE) (Homo sapiens (Human), UniProt P56817); assay: In vitro enzymatic BACE FRET assay; format: biochemical; conditions: read-out: BACE1 Enzyme assay IC50
Chain of Beta Secretase enzyme (BACE) (P56817 46-501): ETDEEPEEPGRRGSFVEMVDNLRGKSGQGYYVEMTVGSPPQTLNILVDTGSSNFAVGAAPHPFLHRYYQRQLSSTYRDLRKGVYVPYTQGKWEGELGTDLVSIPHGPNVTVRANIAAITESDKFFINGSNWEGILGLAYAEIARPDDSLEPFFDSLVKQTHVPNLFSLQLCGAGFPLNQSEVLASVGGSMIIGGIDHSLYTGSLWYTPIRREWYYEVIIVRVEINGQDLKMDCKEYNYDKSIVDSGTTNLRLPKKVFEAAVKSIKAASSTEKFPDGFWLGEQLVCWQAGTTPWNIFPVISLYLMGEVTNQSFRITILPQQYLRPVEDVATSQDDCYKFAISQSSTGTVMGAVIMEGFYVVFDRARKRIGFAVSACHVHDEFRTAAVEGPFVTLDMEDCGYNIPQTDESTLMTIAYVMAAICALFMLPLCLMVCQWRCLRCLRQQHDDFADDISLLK

Chain of Cathepsin D (Cat D) (P07339 65-412, species assumed): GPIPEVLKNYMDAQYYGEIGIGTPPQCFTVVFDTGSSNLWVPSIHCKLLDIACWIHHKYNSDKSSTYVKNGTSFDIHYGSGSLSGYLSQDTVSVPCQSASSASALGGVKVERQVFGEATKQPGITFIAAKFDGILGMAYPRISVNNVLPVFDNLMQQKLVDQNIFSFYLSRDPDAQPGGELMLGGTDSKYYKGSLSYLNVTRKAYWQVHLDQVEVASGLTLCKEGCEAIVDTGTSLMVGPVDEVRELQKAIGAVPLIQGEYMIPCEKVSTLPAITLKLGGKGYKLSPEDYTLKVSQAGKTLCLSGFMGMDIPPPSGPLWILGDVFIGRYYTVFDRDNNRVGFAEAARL
Chain of BACE (P56817 46-501, species assumed): as the sequence (P56817 46-501) above

Structure (SMILES) | IC50 [1] [µM] | IC50 [2] [µM] | IC50 [3] [µM]
Cc1c(C(=O)Nc2ccc(F)c([C@@]3(CF)N=C(N)O[C@@H]4C[C@@H]43)c2)nc2ccc(Cl)cn12 [Example 200, N-(3-((1R,5S,6R)-3-amino-5-(fluoromethyl)-2-oxa-4-azabicyclo[4.1.0]hept-3-en-5-yl)-4-fluorophenyl)-6-chloro-3-methylimidazo[1,2-a]pyridine-2-carboxamide] | 0.025 | 465 | 0.189
Cc1cc(NC(=O)c2ncc(C#N)cc2Cl)cc([C@@]2(C(F)F)N=C(N)O[C@@H]3C[C@@H]32)c1F [Example 133] | 0.0158 | 558 | 0.023
COc1cnc(C(=O)Nc2cc(F)c(F)c([C@@]3(CF)N=C(N)O[C@@H]4C[C@@H]43)c2)cn1 [Example 143, N-(3-((1R,5S,6R)-3-amino-5-(fluoromethyl)-2-oxa-4-azabicyclo[4.1.0]hept-3-en-5-yl)-4,5-difluorophenyl)-5-methoxypyrazine-2-carboxamide] | 0.0221 | 529 | 0.125
COc1cc(C#N)cnc1C(=O)Nc1cc(C)c(F)c([C@@]2(C(F)F)N=C(N)O[C@@H]3C[C@@H]32)c1 [Example 399, N-(3-((1R,5S,6R)-3-amino-5-(difluoromethyl)-2-oxa-4-azabicyclo[4.1.0]hept-3-en-5-yl)-4-fluoro-5-methylphenyl)-5-cyano-3-methoxypicolinamide] | 0.0208 | 1090 | 0.0706
COc1ccc(C(=O)Nc2ccc(F)c([C@@]3(C(F)F)N=C(N)O[C@@H]4C[C@@H]43)c2)nn1 [Example 187, N-(3-((1R,5S,6R)-3-amino-5-(difluoromethyl)-2-oxa-4-azabicyclo[4.1.0]hept-3-en-5-yl)-4-fluorophenyl)-6-methoxypyridazine-3-carboxamide] | 1.41 | 667 | 3.44
NC1=N[C@](c2cc(NC(=O)c3ccc(Cl)cn3)cnc2F)(C(F)F)[C@@H]2C[C@@H]2O1 (racemic) [Example 73, N-(5-([1(R,S),5(S,R),6(R,S)]-3-amino-5-(difluoromethyl)-2-oxa-4-azabicyclo[4.1.0]hept-3-en-5-yl)-6-fluoropyridin-3-yl)-5-chloropicolinamide] | 0.331 | 274 | 0.115
NC1=NC(c2cc(NCc3nn(C(F)F)cc3Cl)ccc2F)(C(F)F)[C@H]2C[C@H]2O1 (stereo in doubt) [Example 374, (1R,5R,6R)-5-(5-(((4-chloro-1-(difluoromethyl)-1H-pyrazol-3-yl)methyl)amino)-2-fluorophenyl)-5-(difluoromethyl)-2-oxa-4-azabicyclo[4.1.0]hept-3-en-3-amine] | 0.0779 | 116 | 0.0954
Cc1nc(OCC(F)(F)F)cnc1C(=O)Nc1ccc(F)c([C@@]2(C(F)F)N=C(N)O[C@@H]3C[C@@H]32)c1 [Example 120, N-(3-((1R,5S,6R)-3-amino-5-(difluoromethyl)-2-oxa-4-azabicyclo[4.1.0]hept-3-en-5-yl)-4-fluorphenyl)-3-methyl-5-(2,2,2-trifluoroethoxy)pyrazine-2-carboxamide] | 0.247 | 351 | 0.05
NC1=N[C@@](c2cc(NS(=O)(=O)c3ccc(Cl)cn3)ccc2F)(C(F)F)[C@H]2C[C@H]2O1 [Example 421, N-(3-((1R,5S,6R)-3-amino-5-(difluoromethyl)-2-oxa-4-azabicyclo[4.1.0]hept-3-en-5-yl)-4-fluorophenyl)-5-chloropyridine-2-sulfonamide] | > 15.6 | 224 | 14.2
NC1=N[C@@](c2cc(NC(=O)C#Cc3ccccc3)ccc2F)(C(F)F)[C@H]2C[C@H]2O1 [Example 262, N-(3-((1R,5S,6R)-3-amino-5-(difluoromethyl)-2-oxa-4-azabicyclo[4.1.0]hept-3-en-5-yl)-4-fluorophenyl)-3-phenylpropiolamide] | 0.144 | 204 | 0.245
Cn1nc(C(F)F)cc1C(=O)Nc1ccc(F)c([C@@]2(C(F)F)N=C(N)O[C@@H]3C[C@@H]32)c1 [Example 154, N-(3-((1R,5S,6R)-3-amino-5-(difluoromethyl)-2-oxa-4-azabicyclo[4.1.0]hept-3-en-5-yl)-4-fluorophenyl)-3-(difluoromethyl)-1-methyl-1H-pyrazole-5-carboxamide] | 0.109 | 515 | 0.24
COc1cnc(C(=O)Nc2ccc(C)c([C@@]3(C(F)F)N=C(N)O[C@@H]4C[C@@H]43)c2)cn1 [Example 294, N-(3-((1R,5S,6R)-3-amino-5-(difluoromethyl)-2-oxa-4-azabicyclo[4.1.0]hept-3-en-5-yl)-4-methylphenyl)-5-methoxypyrazine-2-carboxamide] | 0.0612 | 684 | 0.314
NC1=N[C@](CF)(c2cc(NC(=O)c3nn(C(F)F)cc3Cl)cnc2F)[C@H]2C[C@H]2O1 [Example 207, N-(5-((1R,5S,6R)-3-amino-5-(fluoromethyl)-2-oxa-4-azabicyclo[4.1.0]hept-3-en-5-yl)-6-fluoropyridin-3-yl)-4-chloro-1-(difluoromethyl)-1H-pyrazole-3-carboxamide] | 0.0176 | 370 | 0.0578
COc1ccc(C(=O)Nc2ccc(Cl)c([C@@]3(C(F)F)N=C(N)O[C@@H]4C[C@@H]43)c2)nc1 [Example 100, N-(3-((1R,5S,6R)-3-amino-5-(difluoromethyl)-2-oxa-4-azabicyclo[4.1.0]hept-3-en-5-yl)-4-chlorophenyl)-5-methoxypicolinamide] | 0.0209 | 190 | 0.0611
COc1cnc2c(Nc3ccc(F)c([C@@]4(C(F)F)N=C(N)O[C@@H]5C[C@@H]54)c3)nccc2n1 [Example 447, (1R,5S,6R)-5-(difluoromethyl)-5-(2-fluoro-5-((2-methoxypyrido[3,4-b]pyrazin-5-yl)amino)phenyl)-2-oxa-4-azabicyclo[4.1.0]hept-3-en-3-amine] | 0.167 | 501 | 0.139
N#Cc1ccc(C(=O)Nc2ccc(F)c([C@@]3(C(F)F)N=C(N)O[C@@H]4C[C@@H]43)n2)nc1 [Example 331, N-(6-((1R,5S,6R)-3-amino-5-(difluoromethyl)-2-oxa-4-azabicyclo[4.1.0]hept-3-en-5-yl)-5-fluoropyridin-2-yl)-5-cyanopicolinamide] | > 15.6 | 1510 | 26.7
NC1=N[C@](c2cc(NC(=O)c3ccc(Cl)cn3)ccc2F)(C(F)(F)F)[C@@H]2C[C@@H]2O1 (racemic) [Example 218, N-(3-((1(R,S),5(S,R),6(R,S))-3-amino-5-(trifluoromethyl)-2-oxa-4-azabicyclo[4.1.0]hept-3-en-5-yl)-4-fluorophenyl)-5-chloropicolinamide compound] | > 15.6 | > 400 | 0.861
Cc1cc(C(F)(F)F)cnc1C(=O)Nc1ccc(F)c([C@@]2(C(F)F)N=C(N)O[C@@H]3C[C@@H]32)c1 [Example 188, N-(3-((1R,5S,6R)-3-amino-5-(difluoromethyl)-2-oxa-4-azabicyclo[4.1.0]hept-3-en-5-yl)-4-fluorophenyl)-3-methyl-5-(trifluoromethyl) picolinamide] | 0.0279 | 159 | 0.04
Cc1cc(C#N)cnc1C(=O)Nc1cc(F)c(Cl)c([C@@]2(CF)N=C(N)O[C@@H]3C[C@@H]32)c1 [Example 138, N-(3-((1R,5S,6R)-3-amino-5-(fluoromethyl)-2-oxa-4-azabicyclo[4.1.0]hept-3-en-5-yl)-4-chloro-5-fluorophenyl)-5-cyano-3-methylpicolinamide] | 0.0151 | 662 | 0.0362
NC1=N[C@](CF)(c2cc(NC(=O)c3ccc(Cl)cn3)ccc2Cl)[C@H]2C[C@H]2O1 [Example 270, N-(3-((1R,5S,6R)-3-amino-5-(fluoromethyl)-2-oxa-4-azabicyclo[4.1.0]hept-3-en-5-yl)-4-chlorophenyl)-5-chloropicolinamide] | 0.0122 | 646 | 0.0669
NC1=N[C@@](c2cc(NC(=O)c3ccc(OCc4nccs4)cn3)ccc2F)(C(F)F)[C@H]2C[C@H]2O1 [Example 172, N-(3-((1R,5S,6R)-3-amino-5-(difluoromethyl)-2-oxa-4-azabicyclo[4.1.0]hept-3-en-5-yl)-4-fluorophenyl)-5-(thiazol-2-ylmethoxy) picolinamide] | 0.446 | 360 | 0.0824
COc1cnc(C(=O)Nc2cc(F)c(Cl)c([C@]3(CF)N=C(N)O[C@H]4C[C@H]43)c2)cn1 (racemic) [Example 152, N-(3-([1(S,R),5(R,S),6(S,R)]-3-amino-5-(fluoromethyl)-2-oxa-4-azabicyclo[4.1.0]hept-3-en-5-yl)-4-chloro-5-fluorophenyl)-5-methoxypyrazine-2-carboxamide compound with N-(3-((1S,5R,6S)-3-amino-5-(fluoromethyl)-2-oxa-4-azabicyclo[4.1.0]hept-3-en-5-yl)-4-chloro-5-fluorophenyl)-5-methoxypyrazine-2-carboxamide (1:1)] | 0.0476 | 404 | 0.128
C[C@]1(c2cc(NC(=O)c3ccc(Cl)cn3)ccc2F)N=C(N)O[C@@H]2C[C@@H]21 [Example 68] | 0.0063 | 476 | 0.065
NC1=N[C@@](c2cc(Nc3nccc4nc(C(F)(F)F)cnc34)ccc2F)(C(F)F)[C@H]2C[C@H]2O1 [Example 365, (1R,5S,6R)-5-(difluoromethyl)-5-(2-fluoro-5-((2-(trifluoromethyl)pyrido[3,4-b]pyrazin-5-yl)amino)phenyl)-2-oxa-4-azabicyclo[4.1.0]hept-3-en-3-amine] | 0.254 | > 44.4 | 0.205
